This experiment in a line: ABTS radical cation assay. It counts as biochemical. Particulars: RoxP peptides, ABTS assay (Example 12), increased with concentration. How it is done:
FIG. 4: RoxP antioxidant activity under adverse conditions. The ability of RoxP to reduce ABTS radical cations, denoted by a decrease in absorbance at 734 nm, was tested in multiple settings. Different concentrations of recombinant RoxP (rRoxP) (0.2-3.2 μM) in sodium phosphate buffer (20 mM, pH 7.4) (A), rRoxP (2.7 μM) incubated with salt solutions (B), pre-heated rRoxP (2.7 μM) incubated for 20 min in temperatures ranging from RT to 98° C. and allowed to cool down to ambient temperature prior to activity measurements (C), or rRoxP (2 μM) stored at room temperature for up to 2 weeks (D) were added to a solution of pre-formed ABTS radicals and the absorbance recorded after 30 sec.
The reduction of pre-formed ABTS radical cations in the presence of RoxP was analysed using a spectrophotometric assay previously described by Re et al. (1999 Free Radic Biol Med 26:1231-1237). 2,2′-azinobis(3-ethylbenzothiazoline-6-sulfonic acid) diammonium salt (ABTS) (Sigma-Aldrich) was initially dissolved in ddH2O to a concentration of […]. Potassium persulfate (Merck KGaA, Darmstadt, Germany) was subsequently added to a final concentration of 2.45 mM and the resulting solution kept dark and incubated overnight at RT. Formed ABTS radicals were diluted with PBS (pH 7.4) until reaching an absorbance of approximately 0.7 at 734 nm. Antioxidants (1.7 μM) were added (1:9 v/v) and the absorbance spectrum 500 to 900 nm recorded after 30 sec.

As to “RTLSYCAYPHYVN (Cutibacterium acnes) [RoxP-Peptide 2]”, the antioxidant activity entry was “display antioxidant activity”.

In the case of “VRADGYQESMVTRVLDDK (Cutibacterium acnes) [RoxP-Peptide 1]”, the antioxidant activity entry is listed as “display antioxidant activity”.

Source of the values: US20220000762A1, “COMPOSITIONS FOR TREATING OXIDATIVE STRESS-ASSOCIATED SKIN DISEASES AND SKIN AGEING AND DIAGNOSIS OF OXIDATIVE STRESS-ASSOCIATED SKIN DISEASES” (priority 2019, published 2022).
